Results: patent US20260138962A1, “SYNTHESIS OF DERIVATIVES OF SIPH[…] THERAPEUTIC USE THEREOF” (priority 2022, published 2026)
≈ marks a conversion by molar mass, not a printed value. Where “and” joins values, the source holds several entries; their conditions need not be identical. Identical values can stand only once.

What was measured:
[1] = tested on: Influenza A-type virus (strain 108 617); assay: Cytopathic Effect Reduction Assay against Influenza A (CERA-1) in MDCK cells; type: cell-based; settings: for IC50: calculated with GraphPad Prism
MDCK cells = settings: all test concentrations, 50.0 to 3.75 μg/mL
[2] = tested on: SARS-CoV-2 Wuhan isolate (wild type); assay: microbe, parasite or virus in culture; type: cell-based; settings: Severe acute respiratory syndrome coronavirus 2, Vero C1008

Row | SMILES | inhibition at 50 µg/mL ([1]; Influenza A virus, MDCK, 50.0 μg/mL) | IC50 ([1]; Influenza A virus) | inhibition ([1]; 50.0 μg/mL) | inhibition at 3.75 µg/mL ([1]; Influenza A virus, MDCK, 3.75 μg/mL) | toxicity (MDCK cells) | IC50 ([2]; Wuhan strain, in vitro) | inhibition at 0.5 µg/mL ([2]; Wuhan, 0.5 μg/ml, Vero E6 cells) | inhibition at 2 µg/mL ([2]; Wuhan, 2 μg/ml, Vero E6 cells) | inhibition at 5 µg/mL ([2]; Wuhan, 5 μg/ml, Vero E6 cells) | inhibition at 16 µg/mL ([2]; Wuhan, 16 μg/ml, Vero E6 cells) | inhibition at 50 µg/mL ([2]; Wuhan, 50 μg/ml, Vero E6 cells)
1 | NC(=O)c1ncn([C@@H]2O[C@H](CO)[C@@H](O)[C@H]2O)n1 [ribavirin, reference compound] | > 105% | 2.16 µg/mL (≈ 8.84 µM) | – | – | – | – | – | – | – | – | –
2 | CC1=C2C[C@@H]3[C@@H](C)C=CC(=O)[C@@]3(C)C[C@@]2(O)OC1=O [HLS, (4aR,5S,8aS,9aR)-9a-hydroxy-3,5,8a-trimethyl-4a,5,9,9a-tetrahydronaphtho[2,3-b]furan-2,8(4H,8aH)-dione] | – | 9.2 µg/mL (≈ 35.1 µM) | > 100% and > 123% | > 30% | no toxicity | 3.03 µg/mL (≈ 11.6 µM) | 25% | 50% | 75% | 100% | 100%
